Data set [1] relates to CL:DOPC 1:3 liposomes (cardiolipin). Kind of data set: Isothermal titration calorimetry (ITC) of test compound into CL:DOPC liposomes. The data set is classed as binding. Conditions: 20 mM HEPES pH 7.4. The procedure: Example 18: Isothermal Titration Calorimetry (ITC) Study
1. Preparation of CL:DOPC 1:3 Liposomes (CL Concentration 0.1 mM)
146 μl of cardiolipin solution (5.1 mg/mL in EtOH, Sigma-Aldrich, C1649-10MG) were mixed with 1.2 mg 0.05 mg (exact weight, see Table 1) of DOPC (Avanti Polar Lipids, 850375P) and 20 mM HEPES buffer pH=7.4. Resulting solution was diluted up to 5 mL with the same buffer, vortexed for 2 min and sonicated in bath sonicator for 30 min at room temperature. Liposomes were produced by manual extrusion (Avestin, The LiposoFast-Stabilizer with a LiposoFast-Basic) through a 100 nm filter (Avestin, PC membranes 0.1 m or Avanti Polar Lipids, PC membranes 0.1 μm, 610005). Extrusion was performed for 21 times. EtOH concentration in sample is 2.9%. Obtained CL:DOPC solutions were tested for homogeneity by DLS (Malvern Instruments Ltd, Zetasizer Nano ZSP, instrument with Malvern Instruments Ltd software 7.11) using the following parameters—medium: water; refractive index: 1.33; viscosity: 0.8872 cP; temperature: 25° C.; nanoparticles: liposomes; refractive index of materials: 1.60; detection angle of 173°, a wavelength of 633 nm. All measurements were performed in triplicate.
2. Preparation of Test Compound Solutions
2 mg or 14 mg (exact weight, see Table 1) of test compound were dissolved in 20 mM HEPES buffer (pH=7.4, contains 2,9% (V/V) of EtOH) to obtain 0.7 mM concentration (for exact volumes see Table 3). Obtained solution was vortexed for 2 min.
3. ITC Titration Experiments
Instrument cell was washed and purged with ≈100 μL of CL:DOPC liposomes solution. After washing cell was filled with CL:DOPC liposomes solution. Injection syringe was loaded with test compound solution. Injection volumes were set to values shown in Table 2 and DP values were set to 2.5 μcal/sec in all experiments. Time between injections—105 seconds. Titration of each compound is performed in triplicate, results are reported as mean value±standard deviation (see Table 4).

Data set [2] in a line: Rat PK study, intravenous administration, plasma. The class given is in vivo. Particulars: intravenous 1 mg/kg; for AUC(0-inf): read-out: AUCINF_obs; for clearance: read-out: Cl_obs; for Vd: read-out: Vss_obs. The protocol:
General Methods and Procedures of Rat PK Studies (Aptuit)
All test formulations will be prepared on the day of administration prior to dosing and used as soon as possible. All test formulations will be stored at room temperature, prior to administration.
The dose formulation(s) will be prepared and administered by volume. The target dose levels are detailed below:
Test substances discrete doses will be formulated in saline water at the final concentration of 0.5 mg/mL and intravenously administered at the volume of 2 mL/kg to rats.
Actual body weights of animals will be recorded on the day of dose administration. Doses volumes will be adjusted taking into account the weight of the animal at the time of dose administration. Doses formulations will be administered intravenously via tail vein (2 mL/kg); an aliquot of each dose formulation will be taken before administration. The actual dose received by each animal will be registered and residual volumes discarded.
After administration, serial blood samples will be collected from the lateral tail vein of each rat, then animals will be sacrificed humanely. Approximately 300 μL of Blood will be collected into EDTA tubes. Then exactly 240 μL of blood will be transferred into a micronic tube containing 10 μL of a solution (30 mg/mL NaF and 239 mg/mL Pefabloc) at each of the following time points post-dose (actual times will be recorded): 0.083, 0.25, 0.5, 1, 2, 4 and 8 hours after dosing. All blood samples will be thoroughly but gently mixed following collection and placed on wet ice. Blood will be centrifuged (3000 g for 10 min at approximately 4° C.) as soon as possible and two 50 μL aliquots of plasma will be transferred into micronic tubes. Residual blood will be discarded.
Plasma samples will be frozen at approximately −80° C. as soon as possible after preparation and stored until analysis.
Plasma samples will be assayed using a method based on protein precipitation with methanol followed by HPLC/MS-MS analysis with an optimized analytical method. Calibration standards (CS) and Quality control samples (QC) will be prepared on the day of analysis. Study samples, CS, QC and blanks will be spiked with an internal standard (IS) to improve the precision of the assay. Study samples will be analyzed together with CS, QC and blank samples (including also double blanks). From the calibration curve, the linear range of the analytical method will be determined and lower and upper limits of quantitation specified. Details of the conditions and methods used will be included in the report. All dosing solutions will be checked for accuracy and actual concentration will be reported.
The results for test substances in plasma will be subject to non-compartmental pharmacokinetic analysis using Phoenix WinNonlin 6.3 (see Section 8). The following parameters will be reported:
Calculated concentration of test item in the corresponding formulation (expressed as mg/mL). Dose levels (expressed as mg/kg). Actual collection times (expressed as hh:mm). Plasma concentrations (expressed as ng/mL). Quantitative information about 2 metabolites in Plasma. PK parameters (iv: Cmax, AUClast, AUCinf, CL, Vss, t1/2, if applicable; Abnormal clinical signs and relevant findings, if any.

“And” between values parts separate entries of the source, which are not always exact repeats. Equal values may be shown once. Square brackets hold non-standard residues; d marks the D form. Peptide text beside a SMILES is read from it. Dmt = Cc1cc(O)cc(C)c1C[C@H](N)C(=O)O

Turning to `N=C(N)NCCC[C@@H](NC(=O)[C@@H](N)Cc1ccccc1)C(=O)N[C@@H](Cc1ccccc1)C(=O)N[C@@H](CCCCN)C(N)=O` [Example 1 non-deuterated, Phe-D-Arg-Phe-Lys-NH2, reference compound] (H-F[dR]FK-NH2), in data set [1] (Average of replicates), the Ka amounted to 194000 M⁻¹ and the affinity, expressed as Kd, was 5.39 µM. Moreover, in data set [1] (single replicate titration), the Ka was 230000 M⁻¹ and 141000 M⁻¹ and 211000 M⁻¹; the Kd (in general, a measure of binding affinity in units of concentration) is 4.35 µM and 7.09 µM and 4.74 µM. Also, in data set [2], the AUC(0-t) (usually exposure summed from dosing to a finite time, without extrapolation to infinity) stood at 1950 ng·h/mL; the Cmax (commonly the peak of the concentration-time curve) is 3200 ng/mL; the Tmax (commonly the time from dosing to the highest level) came out at 4.98 min; the half-life (usually the time needed for the level to fall by half in the phase considered) is 30 min. Also, in data set [2], the AUC(0-inf) is 1960 ng·h/mL, the clearance came to 8.55 mL/min/kg and the Vd is 0.27 L/kg.

In data set [1] (Average of replicates), `[2H]C([2H])(N)C([2H])([2H])C([2H])([2H])C([2H])([2H])[C@H](NC(=O)[C@H](Cc1ccccc1)NC(=O)[C@@H](CCCNC(=N)N)NC(=O)[C@@H](N)Cc1ccccc1)C(N)=O` [Example 1, Phe-D-Arg-Phe-(3,3,4,4,5,5,6,6-octadeuterium)-Lys-NH2] gave a Ka of 389000 M⁻¹ and a Kd of 2.62 µM. Moreover, in data set [1] (single replicate titration), the Ka was 473000 M⁻¹ and 384000 M⁻¹ and 366000 M⁻¹ and 331000 M⁻¹; the Kd was 2.11 µM and 2.6 µM and 2.73 µM and 3.02 µM. In addition, in data set [2], the AUC(0-t) came out at 2300 ng·h/mL, the concentration peaked (Cmax) at 4300 ng/mL, the Tmax came out at 4.98 min and the half-life is 27 min. In data set [2], the AUC(0-inf) was 2310 ng·h/mL, the clearance is 7.24 mL/min/kg and the Vd was 0.21 L/kg.

Turning to `Cc1cc(O)cc(C)c1C[C@H](NC(=O)[C@H](N)CCCNC(=N)N)C(=O)N[C@@H](CCCCN)C(=O)N[C@@H](Cc1ccccc1)C(N)=O` [Example 11 non-deuterated] (H-[dR][Dmt]KF-NH2), in data set [2], the AUC(0-t) was found to be 2120 ng·h/mL, the concentration peaked (Cmax) at 2930 ng/mL, the Tmax was 4.98 min and the half-life is 48 min. In data set [2], the AUC(0-inf) was 2120 ng·h/mL, the clearance is 7.97 mL/min/kg and the Vd worked out at 0.29 L/kg.

For the molecule `[2H]C([2H])(CN)C([2H])([2H])C[C@H](NC(=O)[C@H](Cc1c(C)cc(O)cc1C)NC(=O)[C@H](N)CCCNC(=N)N)C(=O)N[C@@H](Cc1ccccc1)C(N)=O` [Example 11, D-Arg-DMT-(4,4,5,5-d4)-Lys-Phe-NH2], in data set [2], the AUC(0-t) was determined as 2920 ng·h/mL, the Cmax is 4680 ng/mL, the Tmax amounted to 4.98 min and the half-life was 35.3 min. In data set [2], the AUC(0-inf) stood at 2940 ng·h/mL, the clearance was 5.7 mL/min/kg and the Vd is 0.23 L/kg.

Values taken from patent publication US20200361987A1, “DEUTERATED TETRAPEPTIDES THAT TARGET MITOCHONDRIA” (STEALTH BIOTHERAPEUTICS CORP., priority 2017, published 2020).
